From ChEMBL document CHEMBL4184333, “Expanding Benzoxazole-Based Inosine 5'-Monophosphate Dehydrogenase (IMPDH) Inhibitor Structure-Activity As Potential Antituberculosis Agents” (J Med Chem, 2018) come the findings set out here.

The target of one test is T1, GMP reductase 2 (Homo sapiens, UniProt Q9P2T1).
T1 sequence (Q9P2T1 whole entry): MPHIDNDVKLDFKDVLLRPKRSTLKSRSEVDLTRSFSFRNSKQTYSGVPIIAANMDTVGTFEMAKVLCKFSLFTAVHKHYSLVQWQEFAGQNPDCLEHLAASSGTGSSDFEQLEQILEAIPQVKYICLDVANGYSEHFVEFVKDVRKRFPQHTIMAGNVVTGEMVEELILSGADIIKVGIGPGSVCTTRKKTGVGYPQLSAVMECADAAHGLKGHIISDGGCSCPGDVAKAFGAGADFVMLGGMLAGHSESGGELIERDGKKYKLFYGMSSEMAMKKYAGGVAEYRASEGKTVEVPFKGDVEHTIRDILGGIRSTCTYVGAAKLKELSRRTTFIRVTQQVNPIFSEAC
Put plainly: Inhibition of human GMPR2 using GMP as substrate by spectrophotometric method. The note with it: read-out: Ki(app).

The subject of test [1] is Mycobacterium tuberculosis. The experiment in a line: Antitubercular activity against Mycobacterium tuberculosis H37Rv ATCC 27294 using 7H9/ADC/Tween medium after 1 week in presence of guanine by broth microdilution method. The note with it: H37Rv ATCC 27294, 168 h. Type of test: functional. A general note: Dilution methods test growth across graded concentrations, often in twofold steps.

For test [2], the system named is Mycobacterium tuberculosis. Put plainly: Antitubercular activity against Mycobacterium tuberculosis H37Rv ATCC 27294 using GAST/Fe medium after 1 week in absence of guanine by broth microdilution method. The note with it: H37Rv ATCC 27294, 168 h. The format is functional.
Test [3] relates to Mycobacterium tuberculosis. Put plainly: Antitubercular activity against Mycobacterium tuberculosis H37Rv ATCC 27294 using GAST/Fe medium after 1 week in presence of guanine by broth microdilution method. The format is functional. The note with it: H37Rv ATCC 27294, 168 h.
Test [4] has as its system Mycobacterium tuberculosis. Put plainly: Antitubercular activity against Mycobacterium tuberculosis H37Rv ATCC 27294 using 7H9/ADC/Tween medium after 1 week in absence of guanine by broth microdilution method. Type of test: functional. The conditions noted are these: H37Rv ATCC 27294, 168 h.
Test [5] deals with Inosine-5'-monophosphate dehydrogenase 2 (Homo sapiens, UniProt P12268). Put plainly: Inhibition of human IMPDH2 using IMP as substrate by spectrophotometric method. The note with it: read-out: Ki(app).
Test [6] has as its system Mycobacterium tuberculosis. The experiment in a line: Antitubercular activity against Mycobacterium tuberculosis H37Rv ATCC 27294 using GAST/Fe medium after 2 weeks in absence of guanine by broth microdilution method. Type of test: functional, organism-based.

Each structure is given as a SMILES string. Values after ≈ are worked out from the molar mass of the structure shown. Active and inactive are the calls of the source. The rule behind the calls is not given here.

In general, MIC refers to the lowest concentration that inhibits growth of the organism. As for `C[C@H](Oc1cccc(F)c1F)C(=O)Nc1ccc2oc(-c3ccc(O)cc3)nc2c1`, the Ki (at GMP reductase 2; in test [5]) was > 5 µM in each case. Besides, the MIC was > 30 µM in test [1], 6 µM (≈ 2.46 µg/mL) in test [2], 19 µM in test [3] and 7 µM (≈ 2.87 µg/mL) in test [4].

Consider `C[C@H](Oc1cccc(Cl)c1Cl)C(=O)Nc1ccc2oc(-c3ccc(-c4noc(=O)[nH]4)cc3)nc2c1`, for which the Ki (on GMP reductase 2; in test [5]) was > 5 µM in each case.

`COc1ccc(-c2nc3cc(NC(=O)[C@H](C)Oc4cccc(Cl)c4Cl)ccc3o2)cc1`: the Ki (on GMP reductase 2; in test [5]) was > 5 µM in each case. Also, the MIC in test [1], in test [2], in test [3] and in test [4] was > 50 µM throughout.

For the compound `C[C@H](Oc1cccc(Cl)c1Cl)C(=O)Nc1ccc2oc(-c3cccc(OCC(=O)O)c3)nc2c1`, the Ki (on GMP reductase 2; in test [5]) was > 5 µM throughout.

Consider `C[C@H](Oc1cccc2c1B(O)OC2)C(=O)Nc1ccc2oc(-c3ccc(C#N)cc3)nc2c1`, for which the Ki (at GMP reductase 2; in test [5]) was > 5 µM each time.

On to `C[C@H](Oc1cccc(Cl)c1Cl)C(=O)Nc1ccc2oc(-c3ccc(F)cc3)nc2c1`, for which the Ki (at GMP reductase 2; in test [5]) was > 5 µM throughout. Further, the MIC in test [1], in test [2], in test [3] and in test [4] was > 50 µM throughout.

Take `C[C@H](Oc1cccc(Cl)c1Cl)C(=O)Nc1ccc2oc(-c3ccc(C#N)cc3)nc2c1`: the Ki at GMP reductase 2 was > 5 µM; in test [5] it was 2.3 µM. In addition, the MIC in test [1] is 6 µM; in test [2], 4 µM (≈ 1.81 µg/mL); in test [3], 5 µM; in test [4], 3 µM (≈ 1.36 µg/mL).

Regarding `C[C@H](Oc1ccccc1C#N)C(=O)Nc1ccc2oc(-c3ccncc3)nc2c1`, the Ki (at GMP reductase 2; in test [5]) was > 5 µM in each case.

Regarding `C[C@H](Oc1cccc(Cl)c1Cl)C(=O)Nc1ccc2oc(-c3ccc(C(=O)O)cc3)nc2c1`, the Ki (at GMP reductase 2; in test [5]) was > 5 µM in each case. The MIC in test [1] is > 50 µM; in test [2], 4 µM (≈ 1.89 µg/mL); in test [3], 5 µM; in test [4] it was ≥ 25 µM. In addition, the result in test [6] was Active.

As to `C[C@H](Oc1cccc(Cl)c1Cl)C(=O)Nc1ccc2oc(-c3ccc(OC(F)(F)F)cc3)nc2c1`, the Ki (at GMP reductase 2; in test [5]) was > 5 µM in each case. Moreover, the MIC in test [1], in test [2], in test [3] and in test [4] was > 50 µM in each case.

As to `C[C@H](Oc1cccc(Cl)c1Cl)C(=O)Nc1ccc2oc(-c3ccc(-c4n[nH]c(=O)o4)cc3)nc2c1`, the results for the Ki (on GMP reductase 2; in test [5]) were > 5 µM and 2.9 µM, respectively. Also, the minimum inhibitory concentration (MIC) in test [1], in test [2], in test [3] and in test [4] was > 50 µM in each case.

On to `C[C@H](Oc1cccc(F)c1F)C(=O)Nc1ccc2oc(-c3ccc(F)cc3)nc2c1`, for which the Ki (on GMP reductase 2; in test [5]) was > 5 µM each time. Besides, the MIC in test [1], in test [2], in test [3] and in test [4] was > 50 µM in each case.

On to `C[C@H](Oc1cccc(Cl)c1Cl)C(=O)Nc1ccc2oc(-c3ccc(CN)cc3)nc2c1`, for which the Ki (on GMP reductase 2; in test [5]) was > 5 µM in each case. In addition, the MIC stood at 25 µM in test [1], 11 µM (≈ 5.02 µg/mL) in test [2], 11 µM in test [3] and 25 µM (≈ 11.4 µg/mL) in test [4].

Take `COc1ccc(-c2nc3cc(NC(=S)[C@H](C)Oc4cccc(Cl)c4Cl)ccc3o2)cc1`: the Ki (at GMP reductase 2; in test [5]) was > 5 µM throughout. The minimal inhibitory concentration (MIC) was > 50 µM in test [1], 37 µM (≈ 17.5 µg/mL) in test [2], > 50 µM in test [3] and > 50 µM in test [4].

In the case of `C[C@H](Nc1cccc(Cl)c1Cl)C(=O)Nc1ccc2oc(-c3ccncc3)nc2c1`, the Ki (on GMP reductase 2; in test [5]) was > 5 µM throughout. The MIC is 35 µM in test [1], 6.7 µM (≈ 2.86 µg/mL) in test [2], 50 µM in test [3] and 12 µM (≈ 5.13 µg/mL) in test [4].

As to `C[C@H](Oc1ccccc1OCc1ccccc1)C(=O)Nc1ccc2oc(-c3ccc(C#N)cc3)nc2c1`, the Ki (at GMP reductase 2; in test [5]) was > 5 µM in each case.

Take `COc1ccc(-c2nc3cc(NC(=O)[C@H](C)Oc4cccc(F)c4F)ccc3o2)cn1`: the Ki (on GMP reductase 2; in test [5]) was > 5 µM throughout. Further, the minimum inhibitory concentration (MIC) in test [1] is > 50 µM; in test [2] it was 6 µM (≈ 2.55 µg/mL); in test [3], 8 µM; in test [4], > 50 µM.

Turning to `C[C@H](Oc1cccc(Cl)c1Cl)C(=O)Nc1ccc2oc(-c3ccccc3O)nc2c1`, the Ki (at GMP reductase 2; in test [5]) was > 5 µM each time.

Consider `COc1ccc(-c2nc3cc(NC(=O)[C@H](C)Oc4cccc(F)c4F)ccc3o2)cc1`, for which the Ki (at GMP reductase 2; in test [5]) was > 5 µM in each case. Moreover, the MIC amounted to 14 µM in test [1], 5 µM (≈ 2.12 µg/mL) in test [2], 8 µM in test [3] and 4 µM (≈ 1.7 µg/mL) in test [4].

For the compound `COc1ccc(Cc2nc3cc(NC(=O)[C@H](C)Oc4cccc(Cl)c4Cl)ccc3o2)cc1`, the Ki (on GMP reductase 2; in test [5]) was > 5 µM in each case.

Turning to `C[C@H](Oc1cccc(Cl)c1Cl)C(=O)Nc1ccc2oc(-c3ccc(/C(N)=N\O)cc3)nc2c1`, the Ki (at GMP reductase 2; in test [5]) was > 5 µM in each case. Moreover, the MIC was > 50 µM in test [1], 25 µM (≈ 12.1 µg/mL) in test [2], 25 µM in test [3] and > 50 µM in test [4].

For the compound `C[C@H](Oc1cccc(Cl)c1Cl)C(=O)Nc1ccc2oc(-c3ccncc3)nc2c1`, the Ki (on GMP reductase 2; in test [5]) was > 5 µM each time. The minimal inhibitory concentration (MIC) in test [1] came to 28 µM; in test [2] it was 9.4 µM (≈ 4.03 µg/mL); in test [3] it was 37 µM; in test [4], 16 µM (≈ 6.85 µg/mL).

For `COC(=O)c1ccc(-c2nc3cc(NC(=O)[C@H](C)Oc4cccc(Cl)c4Cl)ccc3o2)cc1`, the Ki (on GMP reductase 2; in test [5]) was > 5 µM each time.

On to `COc1ccc(-c2cn3cc(NC(=O)[C@H](C)Oc4cccc(Cl)c4Cl)ccc3n2)cc1`, for which the Ki (on GMP reductase 2; in test [5]) was > 5 µM each time.

As for `C[C@H](Oc1ccc(F)c(F)c1F)C(=O)Nc1ccc2oc(-c3ccc(C#N)cc3)nc2c1`, the Ki (on GMP reductase 2; in test [5]) was > 5 µM in each case. Further, the MIC in test [1], in test [2], in test [3] and in test [4] was > 50 µM throughout.

On to `C[C@H](Oc1cccc(Cl)c1Cl)C(=O)Nc1ccc2oc(-c3ccc(C(=O)NN)cc3)nc2c1`, for which the Ki (at GMP reductase 2; in test [5]) was > 5 µM each time.

In the case of `C[C@H](Oc1ccccc1O)C(=O)Nc1ccc2oc(-c3ccc(C#N)cc3)nc2c1`, the Ki (at GMP reductase 2; in test [5]) was > 5 µM throughout. In addition, the MIC came out at 22 µM in test [1], 22 µM (≈ 8.79 µg/mL) in test [2], 25 µM in test [3] and 9.4 µM (≈ 3.75 µg/mL) in test [4].

For the compound `C[C@H](Oc1cccc(Cl)c1Cl)C(=O)Nc1ccc2oc(-c3ccc(O)cc3)nc2c1`, the Ki (on GMP reductase 2; in test [5]) was > 5 µM each time.

Consider `C[C@H](Oc1cccc(Cl)c1Cl)C(=O)Nc1ccc2oc(-c3cccc(O)c3)nc2c1`, for which the Ki (at GMP reductase 2; in test [5]) was > 5 µM each time.

As to `C[C@H](Oc1cccc(Cl)c1Cl)C(=O)Nc1ccc2oc(-c3cc[n+]([O-])cc3)nc2c1`, the Ki (at GMP reductase 2; in test [5]) was > 5 µM in each case.

As for `COc1ccc(-c2nc3cc(NC(=O)[C@H](C)Oc4ccccc4CN)ccc3o2)cc1`, the Ki (at GMP reductase 2; in test [5]) was > 5 µM each time. In addition, the MIC in test [1] stood at 9.4 µM; in test [2] it was 9.4 µM (≈ 3.92 µg/mL); in test [3], 16 µM; in test [4], 5.5 µM (≈ 2.3 µg/mL).

Turning to `COc1ccc(-c2nc3cc(NC(=O)[C@H](C)Oc4cccc(Cl)c4Cl)ccc3o2)cn1`, the Ki (at GMP reductase 2; in test [5]) was > 5 µM each time. Besides, the MIC was > 25 µM in test [1], 7 µM (≈ 3.21 µg/mL) in test [2], 9 µM in test [3] and 6 µM (≈ 2.75 µg/mL) in test [4].

With `C[C@H](Oc1cccc(Cl)c1Cl)C(=O)Nc1ccc2oc(-c3ccc(C(N)=O)cc3)nc2c1`, the Ki (at GMP reductase 2; in test [5]) was > 5 µM in each case.

In the case of `CCOC(=O)COc1cccc(-c2nc3cc(NC(=O)[C@H](C)Oc4cccc(Cl)c4Cl)ccc3o2)c1`, the Ki (on GMP reductase 2; in test [5]) was > 5 µM in each case. Besides, the MIC came to 1.6 µM in test [1], 0.9 µM (≈ 0.476 µg/mL) in test [2], 1.4 µM in test [3] and 1.6 µM (≈ 0.847 µg/mL) in test [4].

Take `C[C@H](Oc1cccc(F)c1C#N)C(=O)Nc1ccc2oc(-c3ccncc3)nc2c1`: the Ki (on GMP reductase 2; in test [5]) was > 5 µM in each case. Moreover, the MIC turned out to be 8 µM in test [1], 6 µM (≈ 2.41 µg/mL) in test [2], 11 µM in test [3] and 4 µM (≈ 1.61 µg/mL) in test [4].
